Assay results published in patent US7932270B2 (Cytokinetics, Inc., priority 2006, dated 2011).

Molecular target: T1, chicken gizzard smooth muscle myosin subfragment-1 chemically crosslinked to cardiac or skeletal actin (Gallus gallus, UniProt P10587)
T1 construct: chicken gizzard smooth muscle myosin subfragment-1; from tissue; host or cells: chicken gizzard
Experiment: Smooth muscle myosin ATPase dose response assay (pyruvate kinase/horseradish peroxidase/pyruvate oxidase-coupled, amplex red fluorescence)
Type: biochemical
Conditions: read-out: IC50 Arithmetic Mean
In short: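 Chicken gizzard myosin S1 crosslinked to cardiac or skeletal actin, titrated to a set hydrolysis rate; 0.15 mM ATP, 12 mM PIPES pH 7.00, 100 mM KCl, 2 mM MgCl2. Pyruvate kinase/pyruvate oxidase/HRP coupling with amplex red fluorescence; IC50 from 4-parameter fit.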

T1 sequence (P02607 2-151): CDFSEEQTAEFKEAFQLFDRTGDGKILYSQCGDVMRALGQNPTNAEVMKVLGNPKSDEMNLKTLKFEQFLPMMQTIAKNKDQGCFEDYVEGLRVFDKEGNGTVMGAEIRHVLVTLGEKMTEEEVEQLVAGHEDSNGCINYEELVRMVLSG
T1 sequence (P10587 84-789): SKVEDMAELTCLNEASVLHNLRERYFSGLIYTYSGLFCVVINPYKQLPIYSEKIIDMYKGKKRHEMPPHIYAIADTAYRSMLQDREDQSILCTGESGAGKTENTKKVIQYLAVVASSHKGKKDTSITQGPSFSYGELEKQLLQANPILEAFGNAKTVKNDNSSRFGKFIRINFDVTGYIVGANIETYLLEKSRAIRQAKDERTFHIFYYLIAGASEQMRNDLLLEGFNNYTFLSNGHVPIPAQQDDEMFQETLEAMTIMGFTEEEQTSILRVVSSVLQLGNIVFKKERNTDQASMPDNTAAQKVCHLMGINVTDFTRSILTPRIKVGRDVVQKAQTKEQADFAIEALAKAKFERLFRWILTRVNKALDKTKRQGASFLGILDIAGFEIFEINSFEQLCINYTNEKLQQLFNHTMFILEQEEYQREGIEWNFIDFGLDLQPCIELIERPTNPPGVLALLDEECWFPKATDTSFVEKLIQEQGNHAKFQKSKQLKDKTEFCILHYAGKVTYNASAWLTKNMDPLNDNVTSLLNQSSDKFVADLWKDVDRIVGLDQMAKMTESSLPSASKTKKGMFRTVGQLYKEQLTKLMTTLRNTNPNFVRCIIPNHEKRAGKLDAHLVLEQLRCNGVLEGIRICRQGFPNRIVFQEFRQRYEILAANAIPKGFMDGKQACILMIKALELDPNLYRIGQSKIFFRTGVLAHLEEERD

First: O=C(NCc1cccnc1)c1ccc(-c2cc[nH]n2)nc1NCCc1cccc(F)c1 [(2-{[2-(3-fluorophenyl)ethyl]amino}-6-pyrazol-3-yl(3-pyridyl))-N-(3-pyridylmethyl)carboxamide]
Second: O=C(NCc1cccnc1)c1ccc(-c2cn[nH]c2)nc1NCCc1cccc(F)c1 [(2-{[2-(3-fluorophenyl)ethyl]amino}-6-pyrazol-4-yl(3-pyridyl))-N-(3-pyridylmethyl)carboxamide]
The IC50 of the first is 2.8-fold higher: 124 nM for the first, 44 nM for the second. The second is the more potent here.

First: O=C(NCc1cc[nH]n1)c1ccc(-c2cc[nH]n2)nc1NCCc1cccc(F)c1 [(2-{[2-(3-fluorophenyl)ethyl]amino}-6-pyrazol-3-yl(3-pyridyl))-N-(pyrazol-3-ylmethyl)carboxamide]
Second: O=C(NCc1cc[nH]n1)c1ccc(-c2cn[nH]c2)nc1NCCc1cccc(F)c1 [(2-{[2-(3-fluorophenyl)ethyl]amino}-6-pyrazol-4-yl(3-pyridyl))-N-(pyrazol-3-ylmethyl)carboxamide]
The IC50 of the first is 2.7-fold higher: 92 nM for the first, 34 nM for the second.

First: O=C(NCc1cccnc1NCCO)c1ccc(-c2cn[nH]c2)nc1NCCc1cccc(F)c1 [(2-{[2-(3-fluorophenyl)ethyl]amino}-6-pyrazol-4-yl(3-pyridyl))-N-({2-[(2-hydroxyethyl)amino](3-pyridyl)}methyl)carboxamide]
Second: O=C(NCc1cccc(NCCO)n1)c1ccc(-c2cn[nH]c2)nc1NCCc1cccc(F)c1 [(2-{[2-(3-fluorophenyl)ethyl]amino}-6-pyrazol-4-yl(3-pyridyl))-N-({6-[(2-hydroxyethyl)amino](2-pyridyl)}methyl)carboxamide]
The IC50 of the first is 1.7-fold higher: 65 nM for the first, 39 nM for the second. The second is the more potent here.

Compared with `O=C(NCC1CCNC1=O)c1ccc(-c2cn[nH]c2)nc1NCCc1cccc(F)c1` (stereo not drawn) [(2-{[2-(3-fluorophenyl)ethyl]amino}-6-pyrazol-4-yl(3-pyridyl))-N-[(2-oxopyrrolidin-3-yl)methyl]carboxamide], `O=C1CNCC(CNC(=O)c2ccc(-c3cn[nH]c3)nc2NCCc2cccc(F)c2)N1` (stereo not drawn) [(2-{[2-(3-fluorophenyl)ethyl]amino}-6-pyrazol-4-yl(3-pyridyl))-N-[(6-oxopiperazin-2-yl)methyl]carboxamide] is 5.4-fold higher in IC50: 180 nM for the first, 973 nM for the second.

First: O=C1CCCCC(CNC(=O)c2ccc(-c3cn[nH]c3)nc2NCCc2cccc(F)c2)N1 (stereo not drawn) [(2-{[2-(3-fluorophenyl)ethyl]amino}-6-pyrazol-4-yl(3-pyridyl))-N-[(7-oxoazaperhydroepin-2-yl)methyl]carboxamide]
Second: O=C1CNCC(CNC(=O)c2ccc(-c3ccn[nH]3)nc2NCCc2cccc(F)c2)N1 (stereo not drawn) [(2-{[2-(3-fluorophenyl)ethyl]amino}-6-pyrazol-5-yl(3-pyridyl))-N-[(6-oxopiperazin-2-yl)methyl]carboxamide]
The IC50 of the first is 10-fold lower: 687 nM for the first, 6950 nM for the second.

Compared with `COc1cccc(CCNc2nc(-c3ccccc3)ccc2C(=O)NCc2cccnc2)c1` [(2-{[2-(3-methoxyphenyl)ethyl]amino}-6-phenyl(3-pyridyl))-N-(3-pyridylmethyl)carboxamide], `Cc1cccc(CCNc2nc(-c3ccccc3)ccc2C(=O)NCc2cccnc2)c1` [(2-{[2-(3-methylphenyl)ethyl]amino}-6-phenyl(3-pyridyl))-N-(3-pyridylmethyl)carboxamide] is 1.7-fold higher in IC50: 269 nM for the first, 450 nM for the second. The first is the more potent here.

Going from `C=CCNC(=O)c1ccc(-c2ccccc2)nc1NCCc1cccc(C)c1` [(2-{[2-(3-methylphenyl)ethyl]amino}-6-phenyl(3-pyridyl))-N-prop-2-enylcarboxamide] to `CNC(=O)/C=C/c1ccc(-c2ccccc2)nc1NCCc1cccc(F)c1` [(2E)-3-(2-{[2-(3-fluorophenyl)ethyl]amino}-6-phenyl(3-pyridyl))-N-methylprop-2-enamide], the IC50 rises from 3740 nM to 57400 nM (15-fold). The first is the more potent here.

First: Nc1ccc(CCNc2nc(-c3ccccc3)ccc2C(=O)NCc2cccnc2)cc1 [(2-{[2-(4-aminophenyl)ethyl]amino}-6-phenyl(3-pyridyl))-N-(3-pyridylmethyl)carboxamide]
Second: O=C(NCc1cccnc1)c1ccc(-c2ccccc2)nc1NCCc1ccc(Cl)cc1 [(2-{[2-(4-chlorophenyl)ethyl]amino}-6-phenyl(3-pyridyl))-N-(3-pyridylmethyl)carboxamide]
The IC50 of the first is 4.1-fold higher: 27100 nM for the first, 6680 nM for the second. The second is the more potent here.

Going from `O=C(NCc1cccnc1)c1ccc(-c2ccccc2)nc1NCCc1ccc(F)cc1` [(2-{[2-(4-fluorophenyl)ethyl]amino}-6-phenyl(3-pyridyl))-N-(3-pyridylmethyl)carboxamide] to `O=C(NCc1cccnc1)c1ccc(-c2ccccc2)nc1NCCc1ccc(O)cc1` [(2-{[2-(4-hydroxyphenyl)ethyl]amino}-6-phenyl(3-pyridyl))-N-(3-pyridylmethyl)carboxamide], the IC50 rises from 1610 nM to 36700 nM (23-fold).

`O=C(NCc1cccnc1)c1ccc(-c2ccccc2)nc1NCC1(O)CCCCC1` [(2-{[(hydroxycyclohexyl)methyl]amino}-6-phenyl(3-pyridyl))-N-(3-pyridylmethyl)carboxamide] and `N#Cc1ccccc1-c1ccc(C(=O)NC[C@H](N)C(=O)O)c(NCCc2cccc(F)c2)n1` [(2S)-2-amino-3-[(6-(2-cyanophenyl)-2-{[2-(3-fluorophenyl)ethyl]amino}(3-pyridyl))carbonylamino]propanoic acid] are within 1.5-fold of each other in IC50: 7810 nM for the first, 9760 nM for the second.

Compared with `CNC(=O)[C@@H](CO)NC(=O)c1ccc(-c2ccccc2C#N)nc1NCCc1cccc(F)c1` [(2R)-2-[(6-(2-cyanophenyl)-2-{[2-(3-fluorophenyl)ethyl]amino}(3-pyridyl))carbonylamino]-3-hydroxy-N-methylpropanamide], `CNC(=O)[C@H](CO)NC(=O)c1ccc(-c2ccccc2C#N)nc1NCCc1cccc(F)c1` [(2S)-2-[(6-(2-cyanophenyl)-2-{[2-(3-fluorophenyl)ethyl]amino}(3-pyridyl))carbonylamino]-3-hydroxy-N-methylpropanamide] is 2.1-fold higher in IC50: 544 nM for the first, 1120 nM for the second. The first is the more potent here.

`CNC(=O)[C@@H](C)NC(=O)c1ccc(-c2ccccc2C#N)nc1NCCc1cccc(F)c1` [(2R)-2-[(6-(2-cyanophenyl)-2-{[2-(3-fluorophenyl)ethyl]amino}(3-pyridyl))carbonylamino]-N-methylpropanamide] and `CNC(=O)[C@H](C)NC(=O)c1ccc(-c2ccccc2C#N)nc1NCCc1cccc(F)c1` [(2S)-2-[(6-(2-cyanophenyl)-2-{[2-(3-fluorophenyl)ethyl]amino}(3-pyridyl))carbonylamino]-N-methylpropanamide] are within 1.5-fold of each other in IC50: 1270 nM for the first, 985 nM for the second.

First: CNC(=O)[C@H](N)CCNC(=O)c1ccc(-c2ccccc2C#N)nc1NCCc1cccc(F)c1 [(2R)-2-amino-4-[(6-(2-cyanophenyl)-2-{[2-(3-fluorophenyl)ethyl]amino}(3-pyridyl))carbonylamino]-N-methylbutanamide]
Second: CNC(=O)[C@@H](N)CCNC(=O)c1ccc(-c2ccccc2C#N)nc1NCCc1cccc(F)c1 [(2S)-2-amino-4-[(6-(2-cyanophenyl)-2-{[2-(3-fluorophenyl)ethyl]amino}(3-pyridyl))carbonylamino]-N-methylbutanamide]
The IC50 of the first is 2.6-fold higher: 12900 nM for the first, 5020 nM for the second.

Compared with `CNC(=O)[C@H](C)CNC(=O)c1cc(F)c(-c2cnn(C)c2)nc1NCCc1cccc(F)c1` [(2R)-3-[(5-fluoro-2-{[2-(3-fluorophenyl)ethyl]amino}-6-(1-methylpyrazol-4-yl)(3-pyridyl))carbonylamino]-2-methyl-N-methylpropanamide], `C[C@H](CNC(=O)c1cc(F)c(-c2cnn(C)c2)nc1NCCc1cccc(F)c1)C(=O)O` [(2R)-3-[(5-fluoro-2-{[2-(3-fluorophenyl)ethyl]amino}-6-(1-methylpyrazol-4-yl)(3-pyridyl))carbonylamino]-2-methylpropanoic acid] is 30-fold higher in IC50: 130 nM for the first, 3840 nM for the second. The first is the more potent here.

Compared with `CNC(=O)[C@@H](CN)NC(=O)c1ccc(-c2ccccc2C#N)nc1NCCc1cccc(F)c1` [(2R)-3-amino-2-[(6-(2-cyanophenyl)-2-{[2-(3-fluorophenyl)ethyl]amino}(3-pyridyl))carbonylamino]-N-methylpropanamide], `CN(C)C(=O)[C@H](CN)NC(=O)c1ccc(-c2ccccc2C#N)nc1NCCc1cccc(F)c1` [(2S)-3-amino-2-[(6-(2-cyanophenyl)-2-{[2-(3-fluorophenyl)ethyl]amino}(3-pyridyl))carbonylamino]-N,N-dimethylpropanamide] is 86-fold higher in IC50: 274 nM for the first, 23700 nM for the second. The first is the more potent here.

First: N#Cc1ccccc1-c1ccc(C(=O)NC[C@@H](COC(=O)CN)NC(=O)CN)c(NCCc2cccc(F)c2)n1 [(2S)-2-(2-aminoacetylamino)-3-[(6-(2-cyanophenyl)-2-{[2-(3-fluorophenyl)ethyl]amino}(3-pyridyl))carbonylamino]propyl 2-aminoacetate]
Second: CNC(=O)[C@@H](N)CNC(=O)c1ccc(-c2ccccc2C#N)nc1NCCc1cccc(F)c1 [(2S)-2-amino-3-[(6-(2-cyanophenyl)-2-{[2-(3-fluorophenyl)ethyl]amino}(3-pyridyl))carbonylamino]-N-methylpropanamide]
The IC50 of the first is 2.5-fold higher: 5700 nM for the first, 2320 nM for the second.

First: CNC(=O)[C@H](CNC(=O)c1ccc(-c2ccccc2C#N)nc1NCCc1cccc(F)c1)NC(C)=O [(2S)-2-(acetylamino)-3-[(6-(2-cyanophenyl)-2-{[2-(3-fluorophenyl)ethyl]amino}(3-pyridyl))carbonylamino]-N-methylpropanamide]
Second: CNC(=O)[C@H](CNC(=O)OC(C)(C)C)NC(=O)c1ccc(-c2ccccc2C#N)nc1NCCc1cccc(F)c1 [(2S)-3-[(tert-butoxy)carbonylamino]-2-[(6-(2-cyanophenyl)-2-{[2-(3-fluorophenyl)ethyl]amino}(3-pyridyl))carbonylamino]-N-methylpropanamide]
The IC50 of the first is 7.9-fold lower: 5550 nM for the first, 43600 nM for the second. The first is the more potent here.

Compared with `CN(C)C(=O)[C@@H](N)CNC(=O)c1ccc(-c2ccccc2C#N)nc1NCCc1cccc(F)c1` [(2S)-2-amino-3-[(6-(2-cyanophenyl)-2-{[2-(3-fluorophenyl)ethyl]amino}(3-pyridyl))carbonylamino]-N,N-dimethylpropanamide], `CC(C)(C)OC(=O)NC[C@H](NC(=O)c1ccc(-c2ccccc2C#N)nc1NCCc1cccc(F)c1)C(=O)O` [(2S)-3-[(tert-butoxy)carbonylamino]-2-[(6-(2-cyanophenyl)-2-{[2-(3-fluorophenyl)ethyl]amino}(3-pyridyl))carbonylamino]propanoic acid] is 3.7-fold higher in IC50: 8180 nM for the first, 30400 nM for the second.
